Test results taken from patent US20260272865A1, “HYDROXYPHENYL PROPANOATE COMPOUNDS FOR TUMOUR IMMUNOTHERAPY, COMPOSITIONS AND USES THEREOF” (UTI LIMITED PARTNERSHIP, priority 2023, published 2026).

How the values were obtained:
M3-9-M tumours = test: Orthotopic M3-9-M rhabdomyosarcoma: tumour immune surveillance, growth, overall survival
Protocol: Tumour cells were orthotopically implanted into 6-8 week old mice. […] For experiments with rhabdomyosarcoma models, mice were orthotopically implanted with 1.5×10^5 M3-9-M or M3-9-M^OVA cells in 50 μL of PBS into the right-behind leg gastrocnemius muscle using an insulin syringe. RMS tumour volume was calculated by subtracting the volume of the gastrocnemius muscle before tumour implantation from the volume after tumour implantation (length×width×height). […] Tumour measurements were taken twice weekly using skin calipers, from implantation day to either experimental or humane endpoints.
Metabolite compounds were obtained from Sigma-Aldrich and prepared into metabolite stock solutions by dissolving them into UltraPure™ DNase/RNase-Free Distilled Water (Invitrogen™) with 1.0N NaOH (Sigma). The pH of the stock solutions was adjusted to 7.4-7.6 and determination of the endotoxin level of the solutions was completed through a limulus amebocyte lysate (LAL) test. […] To test the metabolite effects on anti-tumour immunity, 100 μL of the metabolite at 83 mg/kg bodyweight per mouse was administered intraperitoneally every 48 hours for seven doses. […] Three doses of 250 μg of either anti-PD-1 or anti-PD-L1 were administered intraperitoneally post tumour implantation on day 10, 13 and 16. To neutralize CD8 T cell in mice, anti-CD8 (clone 2.43; BioXcell) monoclonal antibody was used. 250 μg of anti-CD8 antibody in PBS per mouse was injected intraperitoneally 7 and 1 day before tumour implantation, followed by administering 100 μg of anti-CD8 in PBS into the mice on day 3, 7, and 10.

NF-κB pathway = test: NF-κB activity reporter assay in THP1-Dual cells; assay type: cell-based, human
Protocol: NF-κB and IRF induction assays were performed using mouse RAW-Dual™ (InvivoGen) and human THP1-Dua™ (InvivoGen) reporter cell lines. The cells were resuspended in freshly prepared test media at a concentration of 1.0×10^6 cells/mL for RAW-Dual™ and 5.0×10^5 cells/mL for THP1-Dual™. 180 μL of cells were seeded per well in a standard 96-well plate and optimized the concentration of several PRR agonists that trigger NF-κB and IRF. To test the metabolite effect on these pathways, 10 μL of the optimized receptor agonist, 10 μL of the 2 mM metabolite solution or vehicle was added to each well, making a final volume of 200 μL. To neutralize IL-1 receptor signalling, anti-IL-1a (clone 7D4, InvivoGen) and anti-IL-1β (clone 4H5, InvivoGen) antibodies were added and IgG1 isotype (clone T8E5, InvivoGen) was used as a control, as per manufacturer's recommendation. NF-κB activity was determined by measuring secreted embryonic alkaline phosphatase (SEAP) levels using QUANTI-Blue™ solution (InvivoGen). After aliquoting 20 μL of cell culture supernatant into 180 μL of QUANTI-Blue™, the conversion of color to blue was monitored and SEAP levels were determined using a SpectraMax i3 from Molecular Devices at 650 nm. To assess IRF induction, secreted lucia luciferase levels were measured in the culture medium using QUANTI-Luc™ solution (InvivoGen). 20 μL of cell culture supernatant was aliquoted into 50 μL of QUANTI-Luc™ solution and the luminescence reading was immediately recorded using the SpectraMax i3.

B16.F10 melanoma tumours = test: Subcutaneous B16.F10 melanoma in IMDM-CR mice: overall survival; assay type: in vivo, mouse
GSDMD = biological target: T1, GSDMD (Homo sapiens, UniProt P57764); test: Western blot of GSDMD cleavage in THP-1 cells; assay type: cell-based
T1 construct: host or cells: THP1-Dual cells (human monocytic reporter line)
T1 sequence (P57764 1-484): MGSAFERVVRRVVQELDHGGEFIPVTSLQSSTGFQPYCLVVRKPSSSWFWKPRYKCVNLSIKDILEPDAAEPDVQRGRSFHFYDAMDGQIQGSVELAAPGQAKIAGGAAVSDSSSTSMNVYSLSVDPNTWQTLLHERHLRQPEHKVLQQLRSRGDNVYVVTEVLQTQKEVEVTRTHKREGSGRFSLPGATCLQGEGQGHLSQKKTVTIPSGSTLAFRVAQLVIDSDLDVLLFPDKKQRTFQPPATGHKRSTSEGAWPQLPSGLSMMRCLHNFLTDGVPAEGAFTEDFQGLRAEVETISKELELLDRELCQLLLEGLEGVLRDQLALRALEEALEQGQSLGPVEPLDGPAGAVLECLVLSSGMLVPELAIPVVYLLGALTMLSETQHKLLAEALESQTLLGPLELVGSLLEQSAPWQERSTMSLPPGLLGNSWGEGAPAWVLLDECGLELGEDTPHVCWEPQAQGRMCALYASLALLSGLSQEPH
Protocol: Cells were collected and lysates prepared using total lysis buffer (50 mM Tris-HCl, pH 8.0; 150 mM NaCl; 1% Triton X-100; 1% SDS). The supernatant was obtained by centrifuging at 10,000 RPM for 10 minutes at 4° C. using a benchtop PCR centrifuge. Protein quantification was performed using the Bio-Rad DC Protein Assay Kit (Bio-Rad, NC, USA). Proteins were separated using 12% SDS-PAGE gels and transferred to a PVDF membrane using the Bio-Rad Trans-turbo semi-dry transfer apparatus at 25 V/1 A for 1 hour. The membrane was blocked with Tris-buffered-saline-Tween-20™ (TBST) containing 5% skim milk for 30 minutes at room temperature. The membrane was then probed overnight at 4° C. with rabbit monoclonal recombinant anti-GSDMD antibody (ab210070, Abcam), anti-cleaved N-terminal GSDMD antibody (ab215203, Abcam) and mouse anti-actin monoclonal antibody (MAB1501, MilliporeSigma) for human FL-GSDMD, CL-GSDMD and actin. The next day, the membranes were washed with TBST three times and probed with goat anti-rabbit (1706515, Bio-Rad) or goat anti-mouse (1706516, Bio-Rad) horseradish peroxidase-conjugated IgG for 1 hour at room temperature. The secondary antibodies were diluted in TBST containing 5% (w/v) skim milk at 1:5000 and the membranes washed with TBST before detecting the proteins of interest using the Clarity™ Western ECL Substrate (Bio-Rad) on a Chemidoc-IT Imager (UVP, Upland, CA, USA).

M3-9-M^OVA tumours = test: Orthotopic M3-9-M^OVA rhabdomyosarcoma in IMDM-CR mice: immune surveillance, overall survival; assay type: in vivo, mouse

O=C(O)CCc1ccccc1O [Compound I-1, 3-(2-hydroxyphenyl)propanoic acid]
overall survival, combination with ABX vs either treatment alone (M3-9-M tumours; female IMDM-CR mice, M3-9-M tumours, ABX plus 3,2-HPP): even higher overall survival
overall survival, combination with anti-PD-1 vs anti-PD-1 alone (M3-9-M tumours; female IMDM-CR mice, M3-9-M tumours, 3,2-HPP i.p. plus anti-PD-1): further improvement
efficacy of treatment after depletion of CD8 T cells (M3-9-M tumours; female IMDM-CR mice, M3-9-M, anti-CD8 neutralizing antibody (clone 2.43)): abrogated the efficacy
immune surveillance of M3-9-M tumours (overall survival) (M3-9-M tumours; female IMDM-CR mice, i.p. treatment from day 1 post-implantation vs vehicle): enhance the immune surveillance
effect on ABX-reduced immune surveillance (M3-9-M tumours; female IMDM-JAX mice on ABX-supplemented drinking water, M3-9-M tumours): counteracted the negative effect of ABX
overall survival (M3-9-M tumours; female IMDM-JAX mice, M3-9-M tumours, i.p. 3,2-HPP): increased the overall survival
response of non-immunogenic M3-9-M tumours to treatment (M3-9-M tumours; male IMDM-CR mice, i.p. treatment from day 1): did not respond
NF-κB pathway activation combined with PRR agonists (NF-κB pathway; LPS or other NF-κB pathway inducers): potentiate
NF-κB pathway activation when treated with LPS (NF-κB pathway; LPS, 16 hours, vs vehicle): potentiates
overall survival, treatment initiated seven days after implantation (B16.F10 melanoma tumours; IMDM-CR mice, B16.F10, treatment started 7 days after implantation): still effective
overall survival, combination with anti-PD-L1 vs anti-PD-L1 alone (B16.F10 melanoma tumours; female IMDM-CR mice, B16.F10 tumours, 3,2-HPP i.p. plus anti-PD-L1): further improvement
overall survival / immune surveillance of B16.F10 melanoma (B16.F10 melanoma tumours; female IMDM-CR mice, i.p. treatment from day 1): increased the overall survival
GSDMD cleavage in the presence of LPS or LPS+NG stimulation (GSDMD): facilitating gasdermin D cleavage
overall survival, treatment initiated seven days after implantation (M3-9-M^OVA tumours; IMDM-CR mice, M3-9-M^OVA, treatment started 7 days after implantation): still effective
immune surveillance of M3-9-M^OVA tumours (overall survival) (M3-9-M^OVA tumours; male IMDM-CR mice, i.p. treatment from day 1 post-implantation): enhance the immune surveillance
